“And” between values parts separate entries of the source, which are not always exact repeats. Equal entries are not always repeated.
What follows are compounds tested on Meloidogyne incognita (assay: Meloidogyne incognita test (sand, salad seedlings, gall formation)). Conditions: application rate 20 ppm, after 14 days, 100% = no galls, 0% = galls equal to untreated control.
Assay type: in vivo
Experimental: Meloidogyne Incognita—Test
Solvent: 125.0 parts by weight of acetone
To produce a suitable preparation of active compound, 1 part by weight of active compound is mixed with the stated amount of solvent, and the concentrate is diluted with water to the desired concentration.
Vessels are filled with sand, a solution of the active ingredient, a suspension containing eggs and larvae of the southern root-knot nematode (Meloidogyne incognita) and salad seeds. The salad seeds germinate and the seedlings grow. Galls develop in the roots.
After 14 days the nematicidal activity is determined on the basis of the percentage of gall formation. 100% means no galls were found and 0% means the number of galls found on the roots of the treated plants was equal to that in untreated control plants.
For `O=C(NS(=O)(=O)c1ccccc1Cl)c1cc2cc(C(F)(F)F)ccn2n1` [Example I-1, N-[(2-chlorophenyl)sulfonyl]-5-(trifluoromethyl)pyrazolo[1,5-a]pyridine-2-carboxamide], the “nematicidal activity on the basis of the percentage of gall formation” value was 100%.
In the case of `O=C(NS(=O)(=O)c1ncc(C(F)(F)F)cc1Cl)c1cc2c(Cl)cc(C(F)(F)F)cn2n1` [Example I-2], the “nematicidal activity on the basis of the percentage of gall formation” value is reported as 90%.
In the case of `COc1ccc(Cl)c(S(=O)(=O)NC(=O)c2cc3c(Cl)cc(C(F)(F)F)cn3n2)c1` [Example I-3], the “nematicidal activity on the basis of the percentage of gall formation” value is reported as 100% and 90%.
`O=C(NS(=O)(=O)c1ccccc1C(F)(F)F)c1cc2c(Cl)cc(C(F)(F)F)cn2n1` [Example I-4] was tested, and the “nematicidal activity on the basis of the percentage of gall formation” value was 90%.
With `O=C(NS(=O)(=O)c1ccccc1OC(F)(F)F)c1cc2c(Cl)cc(C(F)(F)F)cn2n1` [Example I-5] the “nematicidal activity on the basis of the percentage of gall formation” value was 90%.
In the case of `COc1ccccc1S(=O)(=O)NC(=O)c1cc2c(Cl)cc(C(F)(F)F)cn2n1` [Example I-8], the “nematicidal activity on the basis of the percentage of gall formation” value is reported as 90%.
For `O=C(NS(=O)(=O)c1ccc(Cl)cc1)c1cc2c(Cl)cc(C(F)(F)F)cn2n1` [Example I-9], the “nematicidal activity on the basis of the percentage of gall formation” value was 100% and 90%.
In the case of `Cc1ccccc1S(=O)(=O)NC(=O)c1cc2c(Cl)cc(C(F)(F)F)cn2n1` [Example I-10], the “nematicidal activity on the basis of the percentage of gall formation” value is reported as 90%.
For `O=C(NS(=O)(=O)c1cccc(Cl)c1)c1cc2c(Cl)cc(C(F)(F)F)cn2n1` [Example I-12], the “nematicidal activity on the basis of the percentage of gall formation” value was 90%.
`O=C(NS(=O)(=O)c1cc2c(cc1Cl)OC(F)(F)O2)c1cc2c(Cl)cc(C(F)(F)F)cn2n1` [Example I-14] was tested, and the “nematicidal activity on the basis of the percentage of gall formation” value was 90%.
For `CCS(=O)(=O)NC(=O)c1cc2c(Cl)cc(C(F)(F)F)cn2n1` [Example I-16], the “nematicidal activity on the basis of the percentage of gall formation” value was 100%.
`O=C(NS(=O)(=O)C1CC1)c1cc2c(Cl)cc(C(F)(F)F)cn2n1` [Example I-17] was tested, and the “nematicidal activity on the basis of the percentage of gall formation” value was 100%.
With `O=C(NS(=O)(=O)c1c(Cl)cccc1Cl)c1cc2c(Cl)cc(C(F)(F)F)cn2n1` [Example I-18] the “nematicidal activity on the basis of the percentage of gall formation” value was 100%.
`O=C(NS(=O)(=O)c1ccccc1Cl)c1cc2cc(C(F)(F)F)cc(Cl)n2n1` [Example I-19] was tested, and the “nematicidal activity on the basis of the percentage of gall formation” value was 100%.
For `O=C(NS(=O)(=O)c1ccc(Cl)cc1)c1cc2cc(C(F)(F)F)cc(Cl)n2n1` [Example I-20], the “nematicidal activity on the basis of the percentage of gall formation” value was 90%.
With `O=C(NS(=O)(=O)c1c(Cl)cccc1Cl)c1cc2cc(C(F)(F)F)cc(Cl)n2n1` [Example I-21] the “nematicidal activity on the basis of the percentage of gall formation” value was 100%.
`O=C(NS(=O)(=O)c1cc(Cl)ccc1Cl)c1cc2cc(C(F)(F)F)cc(Cl)n2n1` [Example I-22] was tested, and the “nematicidal activity on the basis of the percentage of gall formation” value was 100%.
For `COc1ccc(Cl)c(S(=O)(=O)NC(=O)c2cc3cc(C(F)(F)F)cc(Cl)n3n2)c1` [Example I-23], the “nematicidal activity on the basis of the percentage of gall formation” value was 100%.
For `O=C(NS(=O)(=O)c1c(Cl)cccc1Cl)c1cc2cc(C(F)(F)F)ccn2n1` [Example I-25], the “nematicidal activity on the basis of the percentage of gall formation” value was 100%.
In the case of `O=C(NS(=O)(=O)c1cc(Cl)ccc1Cl)c1cc2cc(C(F)(F)F)ccn2n1` [Example I-26], the “nematicidal activity on the basis of the percentage of gall formation” value is reported as 100%.
In the case of `COc1ccc(Cl)c(S(=O)(=O)NC(=O)c2cc3cc(C(F)(F)F)ccn3n2)c1` [Example I-27], the “nematicidal activity on the basis of the percentage of gall formation” value is reported as 100%.
For `O=C(NS(=O)(=O)C1CC1)c1cc2cc(C(F)(F)F)ccn2n1` [Example I-29], the “nematicidal activity on the basis of the percentage of gall formation” value was 90%.
`O=C(NS(=O)(=O)c1cccc(Cl)c1)c1cc2cc(C(F)(F)F)cc(Cl)n2n1` [Example I-30] was tested, and the “nematicidal activity on the basis of the percentage of gall formation” value was 100% and 90%.
With `CCS(=O)(=O)NC(=O)c1cc2cc(C(F)(F)F)cc(Cl)n2n1` [Example I-32] the “nematicidal activity on the basis of the percentage of gall formation” value was 90%.
In the case of `O=C(NS(=O)(=O)c1cc(C(F)(F)F)ccc1Cl)c1cc2cc(C(F)(F)F)ccn2n1` [Example I-33], the “nematicidal activity on the basis of the percentage of gall formation” value is reported as 100%.
In the case of `CCOc1ccc(Cl)c(S(=O)(=O)NC(=O)c2cc3cc(C(F)(F)F)ccn3n2)c1` [Example I-34], the “nematicidal activity on the basis of the percentage of gall formation” value is reported as 100%.
With `CCCOc1ccc(Cl)c(S(=O)(=O)NC(=O)c2cc3cc(C(F)(F)F)ccn3n2)c1` [Example I-35] the “nematicidal activity on the basis of the percentage of gall formation” value was 100%.
For `CCc1ccc(Cl)c(S(=O)(=O)NC(=O)c2cc3cc(C(F)(F)F)ccn3n2)c1` [Example I-36], the “nematicidal activity on the basis of the percentage of gall formation” value was 100%.
With `COc1ccc(Br)c(S(=O)(=O)NC(=O)c2cc3cc(C(F)(F)F)ccn3n2)c1` [Example I-37] the “nematicidal activity on the basis of the percentage of gall formation” value was 100%.
`COc1ccc(F)c(S(=O)(=O)NC(=O)c2cc3cc(C(F)(F)F)ccn3n2)c1` [Example I-38] was tested, and the “nematicidal activity on the basis of the percentage of gall formation” value was 100%.
With `CSc1cccc(Cl)c1S(=O)(=O)NC(=O)c1cc2cc(C(F)(F)F)ccn2n1` [Example I-39] the “nematicidal activity on the basis of the percentage of gall formation” value was 100%.
`CCSc1cccc(Cl)c1S(=O)(=O)NC(=O)c1cc2cc(C(F)(F)F)ccn2n1` [Example I-40] was tested, and the “nematicidal activity on the basis of the percentage of gall formation” value was 100%.
For `CC(C)Sc1cccc(Cl)c1S(=O)(=O)NC(=O)c1cc2cc(C(F)(F)F)ccn2n1` [Example I-41], the “nematicidal activity on the basis of the percentage of gall formation” value was 100%.
`CC(C)Nc1cccc(F)c1S(=O)(=O)NC(=O)c1cc2cc(C(F)(F)F)ccn2n1` [Example I-42] was tested, and the “nematicidal activity on the basis of the percentage of gall formation” value was 100%.
`O=C(NS(=O)(=O)c1c(F)cccc1Cl)c1cc2cc(C(F)(F)F)ccn2n1` [Example I-43] was tested, and the “nematicidal activity on the basis of the percentage of gall formation” value was 100%.
For `CCOc1ccc(Cl)c(S(=O)(=O)NC(=O)c2cc3cc(C(F)(F)F)cc(Cl)n3n2)c1` [Example I-44], the “nematicidal activity on the basis of the percentage of gall formation” value was 90%.
With `CCCOc1ccc(Cl)c(S(=O)(=O)NC(=O)c2cc3cc(C(F)(F)F)cc(Cl)n3n2)c1` [Example I-45] the “nematicidal activity on the basis of the percentage of gall formation” value was 100%.
With `COc1ccc(Cl)c(S(=O)(=O)NC(=O)c2cc3cc(Cl)cc(Cl)n3n2)c1` [Example I-49] the “nematicidal activity on the basis of the percentage of gall formation” value was 90%.
With `O=C(NS(=O)(=O)c1cc(Cl)ccc1Cl)c1cc2ccc(C(F)(F)F)cn2n1` [Example I-51] the “nematicidal activity on the basis of the percentage of gall formation” value was 90%.
`O=C(NS(=O)(=O)c1c(Cl)cccc1Cl)c1cc2ccc(C(F)(F)F)cn2n1` [Example I-52] was tested, and the “nematicidal activity on the basis of the percentage of gall formation” value was 90%.
With `CCOc1ccc(Cl)c(S(=O)(=O)NC(=O)c2cc3cc(Cl)cc(Cl)n3n2)c1` [Example I-57] the “nematicidal activity on the basis of the percentage of gall formation” value was 100%.
In the case of `CCCOc1ccc(Cl)c(S(=O)(=O)NC(=O)c2cc3cc(Cl)cc(Cl)n3n2)c1` [Example I-58], the “nematicidal activity on the basis of the percentage of gall formation” value is reported as 100%.
`CCc1ccc(Cl)c(S(=O)(=O)NC(=O)c2cc3cc(Cl)cc(Cl)n3n2)c1` [Example I-59] was tested, and the “nematicidal activity on the basis of the percentage of gall formation” value was 100%.
`CSc1ccc(Cl)c(S(=O)(=O)NC(=O)c2cc3cc(Cl)cc(Cl)n3n2)c1` [Example I-60] was tested, and the “nematicidal activity on the basis of the percentage of gall formation” value was 100%.
`CCc1ccc(Cl)c(S(=O)(=O)NC(=O)c2cc3cc(C(F)(F)F)cc(Cl)n3n2)c1` [Example I-62] was tested, and the “nematicidal activity on the basis of the percentage of gall formation” value was 100%.
With `CCSc1cccc(Cl)c1S(=O)(=O)NC(=O)c1cc2cc(C(F)(F)F)cc(Cl)n2n1` [Example I-63] the “nematicidal activity on the basis of the percentage of gall formation” value was 100%.
With `CC(C)Sc1cccc(Cl)c1S(=O)(=O)NC(=O)c1cc2cc(C(F)(F)F)cc(Cl)n2n1` [Example I-64] the “nematicidal activity on the basis of the percentage of gall formation” value was 100%.
For `O=C(NS(=O)(=O)c1c(F)cccc1Cl)c1cc2cc(C(F)(F)F)cc(Cl)n2n1` [Example I-65], the “nematicidal activity on the basis of the percentage of gall formation” value was 100%.
`CC(C)Nc1cccc(F)c1S(=O)(=O)NC(=O)c1cc2cc(Cl)cc(Cl)n2n1` [Example I-66] was tested, and the “nematicidal activity on the basis of the percentage of gall formation” value was 90%.
In the case of `O=C(NS(=O)(=O)c1c(F)cccc1Cl)c1cc2cc(Cl)cc(Cl)n2n1` [Example I-67], the “nematicidal activity on the basis of the percentage of gall formation” value is reported as 90%.
With `COc1ccc(F)c(S(=O)(=O)NC(=O)c2cc3cc(Cl)cc(Cl)n3n2)c1` [Example I-68] the “nematicidal activity on the basis of the percentage of gall formation” value was 100%.
In the case of `COc1ccc(Br)c(S(=O)(=O)NC(=O)c2cc3cc(Cl)cc(Cl)n3n2)c1` [Example I-69], the “nematicidal activity on the basis of the percentage of gall formation” value is reported as 100%.
With `COc1ccc(Br)c(S(=O)(=O)NC(=O)c2cc3cc(C(F)(F)F)cc(Cl)n3n2)c1` [Example I-70] the “nematicidal activity on the basis of the percentage of gall formation” value was 100%.
In the case of `CSc1cccc(Cl)c1S(=O)(=O)NC(=O)c1cc2cc(C(F)(F)F)cc(Cl)n2n1` [Example I-71], the “nematicidal activity on the basis of the percentage of gall formation” value is reported as 100%.
With `O=C(NS(=O)(=O)c1cc(C(F)(F)F)ccc1Cl)c1cc2cc(C(F)(F)F)cc(Cl)n2n1` [Example I-72] the “nematicidal activity on the basis of the percentage of gall formation” value was 100%.
`O=C(NS(=O)(=O)c1cc(C(F)(F)F)ccc1Br)c1cc2cc(C(F)(F)F)ccn2n1` [Example I-73] was tested, and the “nematicidal activity on the basis of the percentage of gall formation” value was 100%.
In the case of `COc1ccc(F)c(S(=O)(=O)NC(=O)c2cc3cc(C(F)(F)F)cc(Cl)n3n2)c1` [Example I-74], the “nematicidal activity on the basis of the percentage of gall formation” value is reported as 100%.
With `CCc1ccc(C)c(S(=O)(=O)NC(=O)c2cc3cc(Cl)cc(Cl)n3n2)c1` [Example I-75] the “nematicidal activity on the basis of the percentage of gall formation” value was 100%.
For `CSc1cccc(Cl)c1S(=O)(=O)NC(=O)c1cc2cc(Cl)cc(Cl)n2n1` [Example I-76], the “nematicidal activity on the basis of the percentage of gall formation” value was 90%.
`CCc1ccc(C)c(S(=O)(=O)NC(=O)c2cc3cc(C(F)(F)F)cc(Cl)n3n2)c1` [Example I-77] was tested, and the “nematicidal activity on the basis of the percentage of gall formation” value was 100%.
In the case of `CCc1ccc(C)c(S(=O)(=O)NC(=O)c2cc3cc(C(F)(F)F)ccn3n2)c1` [Example I-78], the “nematicidal activity on the basis of the percentage of gall formation” value is reported as 100%.

Source: US20180273534A1, “PYRAZOLOPYRIDINE SULFONAMIDES AS NEMATICIDES” (BAYER CROPSCIENCE AKTIENGESELLSCHAFT, priority 2014, published 2018)
